Measurements from patent publication US11643429B2, “Compounds and methods for the treatment of ocular disorders” (Azura Ophthalmics Ltd., priority 2019, dated 2023).

assay: Aqueous Hydrolysis Stability Assay; type: physicochemical; conditions: 50 mM HEPES buffer pH 7.5; ND, estimated; in HEPES pH 7.5; read-out: T1/2 Aq Stability
Experimental: Determination of aqueous stability of the test compounds was performed using HIPLC-MS. A test compound 10 mM stock solution was prepared in DMSO. 10 μl of the DMSO stock solution was dissolved in 990 μl of 50 mM HEPES pH 7.5 buffer or 1:1 (v/v) of Acetonitrile:Water to make a 100 μM solution. Final DMSO concentration was 1%. The solution was kept at room temperature and injected without delay into the LCMS (Waters Xevo TQ-S or Micromass Ultima). Additional injections were performed at appropriate time points. Half-life (T1/2) of the parent conjugate was calculated using the peak area of the parent conjugate at each time point in the linear region of the log-linear plot.

Row | Structure (SMILES) | half-life at 100 µM [min]
1 | CC[C@H]1OC(=O)[C@H](C)[C@@H](O[C@H]2C[C@@](C)(OC)[C@@H](O)[C@H](C)O2)[C@H](C)[C@@H](O[C@@H]2O[C@H](C)C[C@H](N(C)C)[C@H]2OC(=O)[C@H](C)OC(=O)[C@@H](C)O)[C@](C)(O)C[C@@H](C)CN(C)[C@H](C)[C@@H](O)[C@]1(C)O [Compound 7, (2S,3R,4S,6R)-4-(Dimethylamino)-2-(((2R,3S,4R,5R,8R,10R,11R,12S,13S,14R)-2-ethyl-3,4,10-trihydroxy-13-(((2R,4R,5S,6S)-5-hydroxy-4-methoxy-4,6-dimethyltetrahydro-2H-pyran-2-yl)oxy)-3,5,6,8,10,12,14-heptamethyl-15-oxo-1-oxa-6-azacyclopentadecan-11-yl)oxy)-6-methyltetrahydro-2H-pyran-3-yl(S)-2-(((R)-2-hydroxypropanoyl)oxy)propanoate] | < 3
2 | CC[C@H]1OC(=O)[C@H](C)[C@@H](O[C@H]2C[C@@](C)(OC)[C@@H](O)[C@H](C)O2)[C@H](C)[C@@H](O[C@@H]2O[C@H](C)C[C@H](N(C)C)[C@H]2OC(=O)[C@@H](C)OC(C)=O)[C@](C)(O)C[C@@H](C)CN(C)[C@H](C)[C@@H](O)[C@]1(C)O [Compound 8, (2S,3R,4S,6R)-4-(Dimethylamino)-2-(((2R,3S,4R,5R,8R,10R,11R,12S,13S,14R)-2-ethyl-3,4,10-trihydroxy-13-(((2R,4R,5S,6S)-5-hydroxy-4-methoxy-4,6-dimethyltetrahydro-2H-pyran-2-yl)oxy)-3,5,6,8,10,12,14-heptamethyl-15-oxo-1-oxa-6-azacyclopentadecan-11-yl)oxy)-6-methyltetrahydro-2H-pyran-3-yl (R)-2-acetoxypropanoate] | < 3
3 | CC[C@H]1OC(=O)[C@H](C)[C@@H](O[C@H]2C[C@@](C)(OC)[C@@H](O)[C@H](C)O2)[C@H](C)[C@@H](O[C@@H]2O[C@H](C)C[C@H](N(C)C)[C@H]2OC(=O)CCCC[C@@H]2CCSS2)[C@](C)(O)C[C@@H](C)CN(C)[C@H](C)[C@@H](O)[C@]1(C)O [Compound 9, (2S,3R,4S,6R)-4-(Dimethylamino)-2-(((2R,3S,4R,5R,8R,10R,11R,12S,13S,14R)-2-ethyl-3,4,10-trihydroxy-13-(((2R,4R,5S,6S)-5-hydroxy-4-methoxy-4,6-dimethyltetrahydro-2H-pyran-2-yl)oxy)-3,5,6,8,10,12,14-heptamethyl-15-oxo-1-oxa-6-azacyclopentadecan-11-yl)oxy)-6-methyltetrahydro-2H-pyran-3-yl 5-((R)-1,2-dithiolan-3-yl)pentanoate] | < 3
